The source of these data is patent publication US20180125992A1, “DRUG DELIVERY CONJUGATES OF TERTIARY AMINE […]” (ENDOCYTE, INC., priority 2016, published 2018).

The assay has as its system KB cells. Description: In vitro FR specific activity of folate conjugates: 3H-thymidine incorporation in KB cells. It is filed as cell-based. The following applies: 2 h pulse at 37° C., chase up to 72 h, without excess folate. Here is the method: KB cells were seeded in individual 24-well Falcon plates and allowed to form nearly confluent monolayers overnight in FFRPMI/HIFCS. Thirty minutes prior to the addition of folate-conjugate, spent medium was aspirated from all wells and replaced with either fresh FFRPMI or FFRPMI supplemented with 100 μM FA. Each well then received 1 mL of medium containing increasing concentrations of folate-conjugate (3 wells per sample). Cells were pulsed for 2 h at 37° C., rinsed 4 times with 0.5 mL of medium and then chased in 1 mL of fresh medium up to 72 h. Spent medium was aspirated from all wells and replaced with fresh medium containing 5 μCi/mL of ^3H-thymidine. Following a 2 h incubation at 37° C., cells were washed 3 times with 0.5 mL of PBS and then treated with 0.5 mL of ice-cold 5% trichloroacetic acid per well. After 15 min, the trichloroacetic acid was aspirated and the cells solubilized by the addition of 0.5 mL of 0.25 N sodium hydroxide for 15 min at room temperature. Four hundred and fifty μL of each solubilized sample were transferred to scintillation vials containing 3 mL of Ecolume scintillation cocktail and counted in a liquid scintillation counter. Final results were expressed as the percentage of ^3H-thymidine incorporation relative to untreated controls.
(In general: Dividing cells build labelled thymidine or BrdU into new DNA.)

As usually defined, the IC50 is the concentration that gives 50% inhibition. With `CCCC(=O)OCN(C(=O)[C@@H](NC(=O)[C@H]1CCCC[N+]1(C)CCSSC[C@H](NC(=O)[C@H](CC(=O)O)NC(=O)[C@H](CC(=O)O)NC(=O)[C@H](CCCNC(=N)N)NC(=O)[C@H](CC(=O)O)NC(=O)CC[C@H](NC(=O)c1ccc(NCc2cnc3nc(N)[nH]c(=O)c3n2)cc1)C(=O)O)C(=O)O)C(C)CC)[C@H](C[C@@H](OC(C)=O)c1nc(C(=O)N[C@@H](Cc2ccccc2)C[C@H](C)C(=O)OC)cs1)C(C)C` (some centres unmarked) [Compound 1], the IC50 came out at 5 nM.
In the case of `CC/C=C/CN(C(=O)[C@@H](NC(=O)[C@H]1CCCC[N+]1(C)Cc1ccc(SSC[C@H](NC(=O)[C@H](CC(=O)O)NC(=O)[C@H](CC(=O)O)NC(=O)[C@H](CCCNC(=N)N)NC(=O)[C@H](CC(=O)O)NC(=O)CC[C@H](NC(=O)c2ccc(NCc3cnc4nc(N)[nH]c(=O)c4n3)cc2)C(=O)O)C(=O)O)cc1)C(C)CC)[C@H](C[C@@H](OCC)c1nc(C(=O)N[C@@H](Cc2ccc(O)cc2)C[C@H](C)C(=O)O)cs1)C(C)C` (some centres unmarked) [Compound 2] it was 7 nM.
